Data on ten molecules can be found in article PMC12096669, “Structural isomerisation affects the antitubercular activity of adamantyl-isoxyl adducts” (Journal of Enzyme Inhibition and Medicinal Chemistry, 2025).

Test [1] concerns M. smegmatis mc^2155 mmpL3 knockout strain expressing MmpL3-Mtb-G253E. On the set-up: method as in PMID 22344175. The settings on record: M. smegmatis mc^2155, MmpL3-Mtb-G253E in a mmpL3 knockout strain; cited from earlier work.
The test system of test [2] is Mtb mc^28247 pMV261. The test is described as follows: microbe, parasite or virus in culture. It is filed as cell-based.
The test system of test [3] is Mtb mc^28256 pMV261. The test is described as follows: microbe, parasite or virus in culture. It is filed as cell-based. The settings on record: Mycobacterium tuberculosis, read-out: Mtb MIC95.
The test system of test [4] is Mtb mc^27092 pMV261-mmpL3. The test is described as follows: microbe, parasite or virus in culture. It is filed as cell-based, Mycobacterium tuberculosis. The settings on record: for MIC: Mycobacterium tuberculosis, read-out: Mtb MIC95.
In test [5] the test system is Mtb mc^27092 pMV261-desA3. The test is described as follows: microbe, parasite or virus in culture. The format is cell-based. The settings on record: Mycobacterium tuberculosis, read-out: Mtb MIC95.
Test [6] deals with Mtb mc^27092 pMV261-hadABC. The test is described as follows: microbe, parasite or virus in culture. The format is cell-based. The settings on record: Mycobacterium tuberculosis, read-out: Mtb MIC95.
For test [7], the system named is Mtb mc^27092 pMV261- ethA. The test is described as follows: microbe, parasite or virus in culture. The format is cell-based. The settings on record: Mycobacterium tuberculosis, read-out: Mtb MIC95.
In test [8] the test system is Mtb mc^28245 pMV261. The test is described as follows: microbe, parasite or virus in culture. The format is cell-based.
For test [9], the system named is Mtb mc^27092 pMV261-pks13. The test is described as follows: microbe, parasite or virus in culture. The format is cell-based. The settings on record: Mycobacterium tuberculosis, read-out: Mtb MIC95.
Test [10] concerns Mtb mc^28250 pMV261. The test is described as follows: microbe, parasite or virus in culture. It is filed as cell-based.
Where [11] appears, read: Mycobacterium tuberculosis; read-out: Mtb MIC95.
Setting [12] is: Mycobacterium tuberculosis, read-out: Mtb MIC95.

Values after ≈ are worked out from the molar mass of the structure shown. Where two headings read alike, the source gives them in different places.

Turning to `O=C(Nc1ccc(F)c(F)c1F)NC1C2CC3CC(C2)CC1C3` (stereo not shown) [AU1235], the “increase in the resistance” value in test [1] is given as 2 fold.

As for `CC(C)CCOc1ccc(NC(=S)NC23CC4CC(CC(C4)C2)C3)cc1` [Ad-1-ISO, 1-((3s,5s,7s)-adamantan-1-yl)-3–(4-(isopentyloxy)phenyl)thiourea], the MIC in [2] (setting [11]) came to 1.08 µg/mL (≈ 2.9 µM); in [3] (mc^28256 pMV261, REMA), 1.13 µg/mL (≈ 3.03 µM); in test [4] (mc^27092 pMV261-mmpL3, REMA), 1.16 µg/mL (≈ 3.11 µM); in test [5] (mc^27092 pMV261-desA3, REMA) it was 1.07 µg/mL (≈ 2.87 µM); in test [6] (mc^27092 pMV261-hadABC, REMA) it was 1.09 µg/mL (≈ 2.93 µM); in [7] (mc^27092 pMV261- ethA, REMA), 1.2 µg/mL (≈ 3.22 µM). For the same molecule, the MIC in [8] (setting [11]) was determined as 1.11 µg/mL (≈ 2.98 µM); in [9] (mc^27092 pMV261-pks13, REMA), 1.11 µg/mL (≈ 2.98 µM); in [10] (setting [11]) it was 1.12 µg/mL (≈ 3.01 µM).

Consider `CC(C)CCOc1ccc(NC(=S)NC2C3CC4CC(C3)CC2C4)cc1` (stereo not shown) [Ad-2-ISO, 1-((1r,3r,5r,7r)-adamantan-2-yl)-3–(4-(isopentyloxy)phenyl)thiourea], for which the MIC in [2] (setting [11]) was found to be 2.5 µg/mL (≈ 6.71 µM); in [3] (mc^28256 pMV261, REMA), 2.9 µg/mL (≈ 7.78 µM); in test [4] (mc^27092 pMV261-mmpL3, REMA), 4.2 µg/mL (≈ 11.3 µM); in [5] (mc^27092 pMV261-desA3, REMA), 2.93 µg/mL (≈ 7.86 µM); in [6] (mc^27092 pMV261-hadABC, REMA), 4.34 µg/mL (≈ 11.6 µM); in [7] (mc^27092 pMV261- ethA, REMA), 2.63 µg/mL (≈ 7.06 µM). For the same molecule, the MIC worked out at 3.55 µg/mL (≈ 9.53 µM) in test [8] (setting [11]); 3.37 µg/mL (≈ 9.05 µM) in test [9] (mc^27092 pMV261-pks13, REMA); 3.1 µg/mL (≈ 8.32 µM) in test [10] (setting [11]). Besides, the “increase in resistance on overexpression of MmpL3” value in test [4] is listed as about 2 fold.

Regarding `CC[C@@H](CO)NCCN[C@@H](CC)CO` [EMB, Ethambutol], the MIC in [2] (setting [11]) worked out at 1.97 µg/mL (≈ 9.64 µM); in [3] (mc^28256 pMV261, REMA), 1.88 µg/mL (≈ 9.2 µM); in test [4] (mc^27092 pMV261-mmpL3, REMA) it was 2.02 µg/mL (≈ 9.89 µM); in test [5] (mc^27092 pMV261-desA3, REMA) it was 2.95 µg/mL (≈ 14.4 µM); in [6] (mc^27092 pMV261-hadABC, REMA), 2.54 µg/mL (≈ 12.4 µM); in test [7] (mc^27092 pMV261- ethA, REMA), 2.09 µg/mL (≈ 10.2 µM). Moreover, the MIC in test [8] (setting [11]) was 1.82 µg/mL (≈ 8.91 µM); in test [9] (mc^27092 pMV261-pks13, REMA), 2 µg/mL (≈ 9.79 µM); in test [10] (setting [11]), 1.89 µg/mL (≈ 9.25 µM).

Consider `CCc1cc(C(N)=S)ccn1` [ETH, ethionamide], for which the MIC in [2] (setting [12]) worked out at 0.98 µg/mL (≈ 5.89 µM); in test [3], 1.08 µg/mL (≈ 6.5 µM); in test [4], 0.99 µg/mL (≈ 5.95 µM); in test [5] it was 1.02 µg/mL (≈ 6.14 µM); in [6] it was 2.02 µg/mL (≈ 12.2 µM); in test [7], 0.65 µg/mL (≈ 3.91 µM). The figures for the MIC in test [8] (setting [12]), in [9] and in test [10] (setting [12]) were 0.98 µg/mL (≈ 5.89 µM), 1.01 µg/mL (≈ 6.08 µM) and 1.02 µg/mL (≈ 6.14 µM), respectively.

Consider `NNC(=O)c1ccncc1` [INH, isoniazid], for which the MIC in test [2] (setting [11]) came out at 0.04 µg/mL (≈ 0.292 µM); in [4] (mc^27092 pMV261-mmpL3, REMA) it was 0.04 µg/mL (≈ 0.292 µM); in test [5] (mc^27092 pMV261-desA3, REMA), 0.04 µg/mL (≈ 0.292 µM); in [6] (mc^27092 pMV261-hadABC, REMA), 0.04 µg/mL (≈ 0.292 µM); in [7] (mc^27092 pMV261- ethA, REMA), 0.04 µg/mL (≈ 0.292 µM); in [9] (mc^27092 pMV261-pks13, REMA), 0.04 µg/mL (≈ 0.292 µM).

As to `CC(C)CCOc1ccc(NC(=S)Nc2ccc(OCCC(C)C)cc2)cc1` [ISO, 4,4′-diisoamyloxydiphenylthiourea], the MIC worked out at 0.34 µg/mL (≈ 0.849 µM) in test [2] (setting [11]); 0.19 µg/mL (≈ 0.474 µM) in [3] (mc^28256 pMV261, REMA); 0.21 µg/mL (≈ 0.524 µM) in test [4] (mc^27092 pMV261-mmpL3, REMA); 0.26 µg/mL (≈ 0.649 µM) in test [5] (mc^27092 pMV261-desA3, REMA); 0.71 µg/mL (≈ 1.77 µM) in test [6] (mc^27092 pMV261-hadABC, REMA); 0.09 µg/mL (≈ 0.225 µM) in test [7] (mc^27092 pMV261- ethA, REMA). The MIC in [8] (setting [11]) was 0.18 µg/mL (≈ 0.449 µM); in test [9] (mc^27092 pMV261-pks13, REMA) it was 0.34 µg/mL (≈ 0.849 µM); in [10] (setting [11]) it was 0.2 µg/mL (≈ 0.499 µM).

As to `CC(=O)NC[C@H]1CN(c2ccc(N3CCOCC3)c(F)c2)C(=O)O1` [LZD, linezolid], the MIC in test [2] (setting [11]) stood at 0.88 µg/mL (≈ 2.61 µM); in test [3] (mc^28256 pMV261, REMA) it was 0.66 µg/mL (≈ 1.96 µM); in [4] (mc^27092 pMV261-mmpL3, REMA), 0.86 µg/mL (≈ 2.55 µM); in test [6] (mc^27092 pMV261-hadABC, REMA) it was 0.72 µg/mL (≈ 2.13 µM); in test [8] (setting [11]), 0.9 µg/mL (≈ 2.67 µM); in test [9] (mc^27092 pMV261-pks13, REMA) it was 0.93 µg/mL (≈ 2.76 µM). Also, in test [10] (setting [11]), the MIC was 0.77 µg/mL (≈ 2.28 µM).

Consider `CO[C@H]1/C=C/O[C@@]2(C)Oc3c(C)c(O)c4c(O)c(c(/C=N/N5CCN(C)CC5)c(O)c4c3C2=O)NC(=O)/C(C)=C\C=C\[C@H](C)[C@H](O)[C@@H](C)[C@@H](O)[C@@H](C)[C@H](OC(C)=O)[C@@H]1C` [RIF, rifampicin], for which the MIC was determined as 0.06 µg/mL (≈ 0.0729 µM) in test [4] (mc^27092 pMV261-mmpL3, REMA); 0.06 µg/mL (≈ 0.0729 µM) in [5] (mc^27092 pMV261-desA3, REMA); 0.06 µg/mL (≈ 0.0729 µM) in test [6] (mc^27092 pMV261-hadABC, REMA); 0.06 µg/mL (≈ 0.0729 µM) in test [7] (mc^27092 pMV261- ethA, REMA); 0.05 µg/mL (≈ 0.0608 µM) in test [8] (setting [11]); 0.06 µg/mL (≈ 0.0729 µM) in [9] (mc^27092 pMV261-pks13, REMA).

As for `CC(C)=CCC/C(C)=C/CNCCNC1C2CC3CC(C2)CC1C3` (stereo not shown) [SQ109, N-Adamantan-2-yl-N’-((E)-3,7-dimethylocta-2,6-dienyl)ethane-1,2-diamine], the MIC is 0.3 µg/mL (≈ 0.908 µM) in [2] (setting [11]); 0.27 µg/mL (≈ 0.817 µM) in [3] (mc^28256 pMV261, REMA); 0.74 µg/mL (≈ 2.24 µM) in test [4] (mc^27092 pMV261-mmpL3, REMA); 0.31 µg/mL (≈ 0.938 µM) in test [6] (mc^27092 pMV261-hadABC, REMA); 0.31 µg/mL (≈ 0.938 µM) in test [8] (setting [11]); 0.31 µg/mL (≈ 0.938 µM) in [9] (mc^27092 pMV261-pks13, REMA). Moreover, the MIC in [10] (setting [11]) was 0.3 µg/mL (≈ 0.908 µM).
